Patent US6093732A, “4-hydroxyquinoline-3-carboxamides and hydrazides as antiviral agents” (Pharmacia & Upjohn Company, priority 1998, dated 2000)
Where two headings read alike, the source gives them in different places.

Biological target: T1, HCMV polymerase (Human cytomegalovirus, UniProt P08546)
T1 construct: made in house; host or cells: recombinant baculovirus-infected SF-9 cells
Assay: HCMV polymerase scintillation proximity assay (SPA), modified version
Assay type: biochemical
Conditions: compounds in 100% DMSO
Outline: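 Recombinant polymerase (baculovirus/SF-9) in 5.4 mM HEPES pH 7.5, 11.7 mM KCl, 4.5 mM MgCl2, 0.36 mg/ml BSA, 90 nM 3H-dTTP, ±2 mM CHAPS; started with 6 nM biotinylated poly(dA)-oligo(dT), 25° C or 37° C, EDTA-stopped in linear range (30 min for HCMV). Streptavidin-SPA read; IC50 by linear regression. Modified version: 100% DMSO compound dilution, 4.5 mM DTT added.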

[1] = CMV polymerase, Table 1, modified assay with 4.5 mM DTT, read-out: Antiviral Selective Polymerase IC50 Values, CMV
[2] = Antiviral Selective Polymerase IC50 Values, CMV, Table 1, modified assay with 4.5 mM DTT

T1 sequence (P08546 whole entry): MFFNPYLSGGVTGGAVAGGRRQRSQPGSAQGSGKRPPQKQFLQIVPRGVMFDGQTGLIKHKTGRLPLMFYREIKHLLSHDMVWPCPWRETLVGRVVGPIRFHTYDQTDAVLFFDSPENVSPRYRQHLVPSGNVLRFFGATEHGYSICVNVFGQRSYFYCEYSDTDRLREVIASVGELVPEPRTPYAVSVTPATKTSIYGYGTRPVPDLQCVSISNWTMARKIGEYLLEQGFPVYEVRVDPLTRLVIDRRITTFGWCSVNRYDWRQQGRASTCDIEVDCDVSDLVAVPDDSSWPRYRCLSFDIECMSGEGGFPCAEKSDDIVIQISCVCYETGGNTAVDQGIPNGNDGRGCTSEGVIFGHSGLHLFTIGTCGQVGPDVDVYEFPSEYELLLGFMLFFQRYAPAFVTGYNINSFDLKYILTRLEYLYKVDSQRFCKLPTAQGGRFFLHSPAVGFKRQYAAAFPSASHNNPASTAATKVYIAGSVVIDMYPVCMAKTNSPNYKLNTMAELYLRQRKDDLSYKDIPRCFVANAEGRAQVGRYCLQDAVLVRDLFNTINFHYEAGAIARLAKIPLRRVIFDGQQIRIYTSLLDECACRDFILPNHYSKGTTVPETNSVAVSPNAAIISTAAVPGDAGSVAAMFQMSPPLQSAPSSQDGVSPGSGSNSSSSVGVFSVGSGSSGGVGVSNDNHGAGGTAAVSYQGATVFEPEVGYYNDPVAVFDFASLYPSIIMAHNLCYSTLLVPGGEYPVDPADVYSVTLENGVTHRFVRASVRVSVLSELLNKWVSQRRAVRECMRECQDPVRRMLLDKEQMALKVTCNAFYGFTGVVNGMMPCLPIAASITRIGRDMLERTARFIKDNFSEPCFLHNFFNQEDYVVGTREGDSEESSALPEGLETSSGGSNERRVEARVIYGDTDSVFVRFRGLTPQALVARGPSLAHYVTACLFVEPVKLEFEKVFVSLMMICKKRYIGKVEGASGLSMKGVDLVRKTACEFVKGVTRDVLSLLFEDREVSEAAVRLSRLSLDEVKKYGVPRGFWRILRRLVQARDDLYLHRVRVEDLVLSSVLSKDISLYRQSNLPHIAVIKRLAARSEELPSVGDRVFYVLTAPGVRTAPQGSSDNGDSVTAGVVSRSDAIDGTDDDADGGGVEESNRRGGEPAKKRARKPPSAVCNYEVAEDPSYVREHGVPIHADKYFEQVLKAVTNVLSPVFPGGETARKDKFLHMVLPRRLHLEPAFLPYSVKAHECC

CC(O)CNS(=O)(=O)c1cc(F)c2ncc(C(=O)NCc3ccc(Cl)cc3)c(O)c2c1 (stereo not shown) [Example 223, N-(4-chlorobenzyl)-8-fluoro-4-hydroxy-6-{[(2-hydroxypropyl)amino]sulfonyl}-3-quinolinecarboxamide]
IC50 [1]: 14.5 µM

O=C(NCc1ccc(Cl)cc1)c1cnc2c(F)cc(S(=O)(=O)NCC(O)CO)cc2c1O (stereo not shown) [Example 224, N-(4-chlorobenzyl)-6-{[(2,3-dihydroxypropyl)amino]sulfonyl}-8-fluoro-4-hydroxy-3-quinolinecarboxamide]
IC50 [1]: 21.6 µM

O=C(NCc1ccc(Cl)cc1)c1cnc2c(F)cc(S(=O)(=O)NCC(c3ccccc3)c3ccccc3)cc2c1O [Example 225, N-(4-chlorobenzyl)-6-{[(2,2-diphenylethyl)amino]sulfonyl}-8-fluoro-4-hydroxy-3-quinolinecarboxamide]
IC50 [1]: 8.5 µM

O=C(O)CCCCCCCCCCNS(=O)(=O)c1cc(F)c2ncc(C(=O)NCc3ccc(Cl)cc3)c(O)c2c1 [Example 226, 11-{[(3-{[(4-chlorobenzyl)amino]carbonyl}-8-fluoro-4-hydroxy-6-quinolinyl)sulfonyl]amino}undecanoic acid]
IC50 [1]: 18.5 µM

CC(=O)NCCNS(=O)(=O)c1cc(F)c2ncc(C(=O)NCc3ccc(Cl)cc3)c(O)c2c1 [Example 227, 6-({[2-(acetylamino)ethyl]amino}sulfonyl)-N-(4-chlorobenzyl)-8-fluoro-4-hydroxy-3-quinolinecarboxamide]
IC50 [1]: 26.7 µM

O=C(NCc1ccc(Cl)cc1)c1cnc2c(F)cc(S(=O)(=O)NCCOCCO)cc2c1O [Example 228, N-(4-chlorobenzyl)-8-fluoro-4-hydroxy-6-({[2-(2-hydroxyethoxy)ethyl]amino}sulfonyl)-3-quinolinecarboxamide]
IC50 [1]: 44.3 µM

O=C(NCc1ccc(Cl)cc1)c1cnc2c(F)cc(S(=O)(=O)NCCO)cc2c1O [Example 229, N-(4-chlorobenzyl)-8-fluoro-4-hydroxy-6-{[(2-hydroxyethyl)amino]sulfonyl}-3-quinolinecarboxamide]
IC50 [1]: 10.7 µM

O=C(NCc1ccc(Cl)cc1)c1cnc2c(F)cc(S(=O)(=O)NCCc3ccccc3)cc2c1O [Example 230, N-(4-chlorobenzyl)-8-fluoro-4-hydroxy-6-[(phenethylamino)sulfonyl]-3-quinolinecarboxamide]
IC50 [1]: 9.6 µM

O=C(NCc1ccc(Cl)cc1)c1cnc2c(F)cc(S(=O)(=O)NCCc3ccc(Cl)cc3)cc2c1O [Example 231, N-(4-chlorobenzyl)-6-{[(4-chlorophenethyl)amino]sulfonyl}-8-fluoro-4-hydroxy-3-quinolinecarboxamide]
IC50 [1]: 8.3 µM

C#CCNS(=O)(=O)c1cc(F)c2ncc(C(=O)NCc3ccc(Cl)cc3)c(O)c2c1 [Example 232, N-(4-chlorobenzyl)-8-fluoro-4-hydroxy-6-[(2-propynylamino)sulfonyl]-3-quinolinecarboxamide]
IC50 [1]: 23.4 µM

CC(C)CCNS(=O)(=O)c1cc(F)c2ncc(C(=O)NCc3ccc(Cl)cc3)c(O)c2c1 [Example 233, N-(4-chlorobenzyl)-8-fluoro-4-hydroxy-6-[(isopentylamino)sulfonyl]-3-quinolinecarboxamide]
IC50 [1]: 11.2 µM

O=C(NCc1ccc(Cl)cc1)c1cnc2c(F)cc(S(=O)(=O)NCCCc3ccccc3)cc2c1O [Example 234, N-(4-chlorobenzyl)-8-fluoro-4-hydroxy-6-{[(3-phenylpropyl)amino]sulfonyl}-3-quinolinecarboxamide]
IC50 [1]: 8.9 µM

CCCCCNS(=O)(=O)c1cc(F)c2ncc(C(=O)NCc3ccc(Cl)cc3)c(O)c2c1 [Example 235, N-(4-chlorobenzyl)-8-fluoro-4-hydroxy-6-[(pentylamino)sulfonyl]-3-quinolinecarboxamide]
IC50 [1]: 11.8 µM

O=C(NCc1ccc(Cl)cc1)c1cnc2c(F)cc(S(=O)(=O)NCc3cc(C(F)(F)F)cc(C(F)(F)F)c3)cc2c1O [Example 236, 6-({[3,5-bis(trifluoromethyl)benzyl]amino}sulfonyl)-N-(4-chlorobenzyl)-8-fluoro-4-hydroxy-3-quinolinecarboxamide]
IC50 [1]: 6.6 µM

O=C(NCc1ccc(Cl)cc1)c1cnc2c(F)cc(S(=O)(=O)NCCC3=CCCCC3)cc2c1O [Example 237, N-(4-chlorobenzyl)-6-({[2-(1-cyclohexen-1-yl)ethyl]amino}-sulfonyl)-8-fluoro-4-hydroxy-3-quinolinecarboxamide]
IC50 [1]: 6.9 µM

O=C(NCc1ccc(Cl)cc1)c1cnc2c(F)cc(S(=O)(=O)NCCNc3cccc4ccccc34)cc2c1O [Example 238, N-(4-chlorobenzyl)-8-fluoro-4-hydroxy-6-({[2-(1-naphthylamino)ethyl]amino}sulfonyl)-3-quinolinecarboxamide]
IC50 [1]: 1.6 µM

CNS(=O)(=O)c1cc(F)c2ncc(C(=O)NCc3ccc(Cl)cc3)c(O)c2c1 [Example 239, N-(4-chlorobenzyl)-8-fluoro-4-hydroxy-6-[(methylamino)sulfonyl]-3-quinolinecarboxamide]
IC50 [1]: 13.1 µM

N#CCNS(=O)(=O)c1cc(F)c2ncc(C(=O)NCc3ccc(Cl)cc3)c(O)c2c1 [Example 240, N-(4-chlorobenzyl)-6-{[(cyanomethyl)amino]sulfonyl}-8-fluoro-4-hydroxy-3-quinolinecarboxamide]
IC50 [1]: 11.4 µM

COc1ccc(CNS(=O)(=O)c2cc(F)c3ncc(C(=O)NCc4ccc(Cl)cc4)c(O)c3c2)c(OC)c1 [Example 241, N-(4-chlorobenzyl)-6-{[(2,4-dimethoxybenzyl)amino]sulfonyl}-8-fluoro-4-hydroxy-3-quinolinecarboxamide]
IC50 [1]: 16 µM

O=C(NCc1ccc(Cl)cc1)c1cnc2c(F)cc(S(=O)(=O)NCc3cccc(I)c3)cc2c1O [Example 242, N-(4-chlorobenzyl)-8-fluoro-4-hydroxy-6-{[(3-iodobenzyl)amino]sulfonyl}-3-quinolinecarboxamide]
IC50 [1]: 8.4 µM

O=C(NCc1ccc(Cl)cc1)c1cnc2c(F)cc(S(=O)(=O)NCC(F)(F)F)cc2c1O [Example 243, N-(4-chlorobenzyl)-8-fluoro-4-hydroxy-6-{[(2,2,2-trifluoroethyl)amino]sulfonyl}-3-quinolinecarboxamide]
IC50 [1]: 15.5 µM

O=C(NCc1ccc(Cl)cc1)c1cnc2c(F)cc(S(=O)(=O)NCCBr)cc2c1O [Example 244, 6-{[(2-bromoethyl)amino]sulfonyl}-N-(4-chlorobenzyl)-8-fluoro-4-hydroxy-3-quinolinecarboxamide]
IC50 [2]: 19 µM

O=C(NCc1ccc(Cl)cc1)c1cnc2c(F)cc(S(=O)(=O)NCCCl)cc2c1O [Example 245, N-(4-chlorobenzyl)-6-{[(2-chloroethyl)amino]sulfonyl}-8-fluoro-4-hydroxy-3-quinolinecarboxamide]
IC50 [2]: 13.3 µM

O=C(NCc1ccc(Cl)cc1)c1cnc2c(F)cc(S(=O)(=O)NCCc3ccc(O)c(O)c3)cc2c1O [Example 246, N-(4-chlorobenzyl)-6-{[(3,4-dihydroxyphenethyl)amino]-sulfonyl}-8-fluoro-4-hydroxy-3-quinolinecarboxamide]
IC50 [1]: 8.6 µM

CCSCCNS(=O)(=O)c1cc(F)c2ncc(C(=O)NCc3ccc(Cl)cc3)c(O)c2c1 [Example 247]
IC50 [1]: 10.2 µM

O=C(NCc1ccc(Cl)cc1)c1cnc2c(F)cc(S(=O)(=O)NCCCBr)cc2c1O [Example 248, 6-{[(3-bromopropyl)amino]sulfonyl}-N-(4-chlorobenzyl)-8-fluoro-4-hydroxy-3-quinolinecarboxamide]
IC50 [1]: 11.6 µM

NS(=O)(=O)c1ccc(CNS(=O)(=O)c2cc(F)c3ncc(C(=O)NCc4ccc(Cl)cc4)c(O)c3c2)cc1 [Example 249, 6-({[4-(aminosulfonyl)benzyl]amino}sulfonyl)-N-(4-chlorobenzyl)-8-fluoro-4-hydroxy-3-quinolinecarboxamide]
IC50 [1]: 7.6 µM

O=C(NCc1ccc(Cl)cc1)c1cnc2c(F)cc(S(=O)(=O)NCCN(CCO)CCO)cc2c1O [Example 250, 6-[({2-[bis(2-hydroxyethyl)amino]ethyl}amino)sulfonyl]-N-(4-chlorobenzyl)-8-fluoro-4-hydroxy-3-quinolinecarboxamide]
IC50 [1]: 45.2 µM

CCSCCNS(=O)(=O)c1cc(F)c2ncc(C(=O)NCc3ccc(Cl)cc3)c(O)c2c1 [Example 251, N-(4-chlorobenzyl)-6-({[2-(ethylsulfanyl)ethyl]amino}sulfonyl)-8-fluoro-4-hydroxy-3-quinolinecarboxamide]
IC50 [1]: 18.7 µM

Cc1ccc(CNS(=O)(=O)c2cc(F)c3ncc(C(=O)NCc4ccc(Cl)cc4)c(O)c3c2)cc1C [Example 252, N-(4-chlorobenzyl)-6-{[(3,4-dimethylbenzyl)amino]sulfonyl}-8-fluoro-4-hydroxy-3-quinolinecarboxamide]
IC50 [1]: 18.9 µM

O=C(NCc1ccc(Cl)cc1)c1cnc2c(F)cc(S(=O)(=O)NCC3CC3)cc2c1O [Example 253, N-(4-chlorobenzyl)-6-{[(cyclopropylmethyl)amino]sulfonyl}-8-fluoro-4-hydroxy-3-quinolinecarboxamide]
IC50 [1]: 20.6 µM

O=C(NCc1ccc(Cl)cc1)c1cnc2c(F)cc(S(=O)(=O)NCc3ccc(Br)cc3)cc2c1O [Example 254, 6-{[(4-bromobenzyl)amino]sulfonyl}-N-(4-chlorobenzyl)-8-fluoro-4-hydroxy-3-quinolinecarboxamide]
IC50 [1]: 14.7 µM

O=C(NCc1ccc(Cl)cc1)c1cnc2c(F)cc(S(=O)(=O)NCCc3cccs3)cc2c1O [Example 255, N-(4-chlorobenzyl)-8-fluoro-4-hydroxy-6-({[2-(2-thienyl)ethyl]amino}sulfonyl)-3-quinolinecarboxamide]
IC50 [1]: 12.1 µM

O=C(NCc1ccc(Cl)cc1)c1cnc2c(F)cc(S(=O)(=O)NCCOc3ccccc3)cc2c1O [Example 256, N-(4-chlorobenzyl)-8-fluoro-4-hydroxy-6-{[(2-phenoxyethyl)amino]sulfonyl}-3-quinolinecarboxamide]
IC50 [1]: 9.3 µM
